Values quoted from earlier work in patent publication US20130281512A1, “AGENTS FOR TREATING DISORDERS INVOLVING MODULATION OF RYANODINE RECEPTORS” (LES LABORATOIRES SERVIER, priority 2012, published 2013).

Legend:
[1] = molecular target: T1, RyR1 (Mus musculus, UniProt E9PZQ0); conditions: aged mice; cited from earlier work
T1 construct: RyR1 from aged (24 months) mice is oxidized, cysteine-nitrosylated, and depleted of calstabin1; host or cells: mice (in vivo)

[2] = molecular target: T1, RyR1; conditions: extreme exercise, mice; cited from earlier work
[3] = tested on: RyR2; conditions: WT and RyR2-S2808D+/+ mice; cited from earlier work
[4] = tested on: RyR1; conditions: mdx mouse model; cited from earlier work
[5] = tested on: RyR; conditions: cited from earlier work
[6] = tested on: DMD exon skipping; conditions: skeletal muscle of mdx mice; cited from earlier work

T1 sequence (E9PZQ0 whole entry): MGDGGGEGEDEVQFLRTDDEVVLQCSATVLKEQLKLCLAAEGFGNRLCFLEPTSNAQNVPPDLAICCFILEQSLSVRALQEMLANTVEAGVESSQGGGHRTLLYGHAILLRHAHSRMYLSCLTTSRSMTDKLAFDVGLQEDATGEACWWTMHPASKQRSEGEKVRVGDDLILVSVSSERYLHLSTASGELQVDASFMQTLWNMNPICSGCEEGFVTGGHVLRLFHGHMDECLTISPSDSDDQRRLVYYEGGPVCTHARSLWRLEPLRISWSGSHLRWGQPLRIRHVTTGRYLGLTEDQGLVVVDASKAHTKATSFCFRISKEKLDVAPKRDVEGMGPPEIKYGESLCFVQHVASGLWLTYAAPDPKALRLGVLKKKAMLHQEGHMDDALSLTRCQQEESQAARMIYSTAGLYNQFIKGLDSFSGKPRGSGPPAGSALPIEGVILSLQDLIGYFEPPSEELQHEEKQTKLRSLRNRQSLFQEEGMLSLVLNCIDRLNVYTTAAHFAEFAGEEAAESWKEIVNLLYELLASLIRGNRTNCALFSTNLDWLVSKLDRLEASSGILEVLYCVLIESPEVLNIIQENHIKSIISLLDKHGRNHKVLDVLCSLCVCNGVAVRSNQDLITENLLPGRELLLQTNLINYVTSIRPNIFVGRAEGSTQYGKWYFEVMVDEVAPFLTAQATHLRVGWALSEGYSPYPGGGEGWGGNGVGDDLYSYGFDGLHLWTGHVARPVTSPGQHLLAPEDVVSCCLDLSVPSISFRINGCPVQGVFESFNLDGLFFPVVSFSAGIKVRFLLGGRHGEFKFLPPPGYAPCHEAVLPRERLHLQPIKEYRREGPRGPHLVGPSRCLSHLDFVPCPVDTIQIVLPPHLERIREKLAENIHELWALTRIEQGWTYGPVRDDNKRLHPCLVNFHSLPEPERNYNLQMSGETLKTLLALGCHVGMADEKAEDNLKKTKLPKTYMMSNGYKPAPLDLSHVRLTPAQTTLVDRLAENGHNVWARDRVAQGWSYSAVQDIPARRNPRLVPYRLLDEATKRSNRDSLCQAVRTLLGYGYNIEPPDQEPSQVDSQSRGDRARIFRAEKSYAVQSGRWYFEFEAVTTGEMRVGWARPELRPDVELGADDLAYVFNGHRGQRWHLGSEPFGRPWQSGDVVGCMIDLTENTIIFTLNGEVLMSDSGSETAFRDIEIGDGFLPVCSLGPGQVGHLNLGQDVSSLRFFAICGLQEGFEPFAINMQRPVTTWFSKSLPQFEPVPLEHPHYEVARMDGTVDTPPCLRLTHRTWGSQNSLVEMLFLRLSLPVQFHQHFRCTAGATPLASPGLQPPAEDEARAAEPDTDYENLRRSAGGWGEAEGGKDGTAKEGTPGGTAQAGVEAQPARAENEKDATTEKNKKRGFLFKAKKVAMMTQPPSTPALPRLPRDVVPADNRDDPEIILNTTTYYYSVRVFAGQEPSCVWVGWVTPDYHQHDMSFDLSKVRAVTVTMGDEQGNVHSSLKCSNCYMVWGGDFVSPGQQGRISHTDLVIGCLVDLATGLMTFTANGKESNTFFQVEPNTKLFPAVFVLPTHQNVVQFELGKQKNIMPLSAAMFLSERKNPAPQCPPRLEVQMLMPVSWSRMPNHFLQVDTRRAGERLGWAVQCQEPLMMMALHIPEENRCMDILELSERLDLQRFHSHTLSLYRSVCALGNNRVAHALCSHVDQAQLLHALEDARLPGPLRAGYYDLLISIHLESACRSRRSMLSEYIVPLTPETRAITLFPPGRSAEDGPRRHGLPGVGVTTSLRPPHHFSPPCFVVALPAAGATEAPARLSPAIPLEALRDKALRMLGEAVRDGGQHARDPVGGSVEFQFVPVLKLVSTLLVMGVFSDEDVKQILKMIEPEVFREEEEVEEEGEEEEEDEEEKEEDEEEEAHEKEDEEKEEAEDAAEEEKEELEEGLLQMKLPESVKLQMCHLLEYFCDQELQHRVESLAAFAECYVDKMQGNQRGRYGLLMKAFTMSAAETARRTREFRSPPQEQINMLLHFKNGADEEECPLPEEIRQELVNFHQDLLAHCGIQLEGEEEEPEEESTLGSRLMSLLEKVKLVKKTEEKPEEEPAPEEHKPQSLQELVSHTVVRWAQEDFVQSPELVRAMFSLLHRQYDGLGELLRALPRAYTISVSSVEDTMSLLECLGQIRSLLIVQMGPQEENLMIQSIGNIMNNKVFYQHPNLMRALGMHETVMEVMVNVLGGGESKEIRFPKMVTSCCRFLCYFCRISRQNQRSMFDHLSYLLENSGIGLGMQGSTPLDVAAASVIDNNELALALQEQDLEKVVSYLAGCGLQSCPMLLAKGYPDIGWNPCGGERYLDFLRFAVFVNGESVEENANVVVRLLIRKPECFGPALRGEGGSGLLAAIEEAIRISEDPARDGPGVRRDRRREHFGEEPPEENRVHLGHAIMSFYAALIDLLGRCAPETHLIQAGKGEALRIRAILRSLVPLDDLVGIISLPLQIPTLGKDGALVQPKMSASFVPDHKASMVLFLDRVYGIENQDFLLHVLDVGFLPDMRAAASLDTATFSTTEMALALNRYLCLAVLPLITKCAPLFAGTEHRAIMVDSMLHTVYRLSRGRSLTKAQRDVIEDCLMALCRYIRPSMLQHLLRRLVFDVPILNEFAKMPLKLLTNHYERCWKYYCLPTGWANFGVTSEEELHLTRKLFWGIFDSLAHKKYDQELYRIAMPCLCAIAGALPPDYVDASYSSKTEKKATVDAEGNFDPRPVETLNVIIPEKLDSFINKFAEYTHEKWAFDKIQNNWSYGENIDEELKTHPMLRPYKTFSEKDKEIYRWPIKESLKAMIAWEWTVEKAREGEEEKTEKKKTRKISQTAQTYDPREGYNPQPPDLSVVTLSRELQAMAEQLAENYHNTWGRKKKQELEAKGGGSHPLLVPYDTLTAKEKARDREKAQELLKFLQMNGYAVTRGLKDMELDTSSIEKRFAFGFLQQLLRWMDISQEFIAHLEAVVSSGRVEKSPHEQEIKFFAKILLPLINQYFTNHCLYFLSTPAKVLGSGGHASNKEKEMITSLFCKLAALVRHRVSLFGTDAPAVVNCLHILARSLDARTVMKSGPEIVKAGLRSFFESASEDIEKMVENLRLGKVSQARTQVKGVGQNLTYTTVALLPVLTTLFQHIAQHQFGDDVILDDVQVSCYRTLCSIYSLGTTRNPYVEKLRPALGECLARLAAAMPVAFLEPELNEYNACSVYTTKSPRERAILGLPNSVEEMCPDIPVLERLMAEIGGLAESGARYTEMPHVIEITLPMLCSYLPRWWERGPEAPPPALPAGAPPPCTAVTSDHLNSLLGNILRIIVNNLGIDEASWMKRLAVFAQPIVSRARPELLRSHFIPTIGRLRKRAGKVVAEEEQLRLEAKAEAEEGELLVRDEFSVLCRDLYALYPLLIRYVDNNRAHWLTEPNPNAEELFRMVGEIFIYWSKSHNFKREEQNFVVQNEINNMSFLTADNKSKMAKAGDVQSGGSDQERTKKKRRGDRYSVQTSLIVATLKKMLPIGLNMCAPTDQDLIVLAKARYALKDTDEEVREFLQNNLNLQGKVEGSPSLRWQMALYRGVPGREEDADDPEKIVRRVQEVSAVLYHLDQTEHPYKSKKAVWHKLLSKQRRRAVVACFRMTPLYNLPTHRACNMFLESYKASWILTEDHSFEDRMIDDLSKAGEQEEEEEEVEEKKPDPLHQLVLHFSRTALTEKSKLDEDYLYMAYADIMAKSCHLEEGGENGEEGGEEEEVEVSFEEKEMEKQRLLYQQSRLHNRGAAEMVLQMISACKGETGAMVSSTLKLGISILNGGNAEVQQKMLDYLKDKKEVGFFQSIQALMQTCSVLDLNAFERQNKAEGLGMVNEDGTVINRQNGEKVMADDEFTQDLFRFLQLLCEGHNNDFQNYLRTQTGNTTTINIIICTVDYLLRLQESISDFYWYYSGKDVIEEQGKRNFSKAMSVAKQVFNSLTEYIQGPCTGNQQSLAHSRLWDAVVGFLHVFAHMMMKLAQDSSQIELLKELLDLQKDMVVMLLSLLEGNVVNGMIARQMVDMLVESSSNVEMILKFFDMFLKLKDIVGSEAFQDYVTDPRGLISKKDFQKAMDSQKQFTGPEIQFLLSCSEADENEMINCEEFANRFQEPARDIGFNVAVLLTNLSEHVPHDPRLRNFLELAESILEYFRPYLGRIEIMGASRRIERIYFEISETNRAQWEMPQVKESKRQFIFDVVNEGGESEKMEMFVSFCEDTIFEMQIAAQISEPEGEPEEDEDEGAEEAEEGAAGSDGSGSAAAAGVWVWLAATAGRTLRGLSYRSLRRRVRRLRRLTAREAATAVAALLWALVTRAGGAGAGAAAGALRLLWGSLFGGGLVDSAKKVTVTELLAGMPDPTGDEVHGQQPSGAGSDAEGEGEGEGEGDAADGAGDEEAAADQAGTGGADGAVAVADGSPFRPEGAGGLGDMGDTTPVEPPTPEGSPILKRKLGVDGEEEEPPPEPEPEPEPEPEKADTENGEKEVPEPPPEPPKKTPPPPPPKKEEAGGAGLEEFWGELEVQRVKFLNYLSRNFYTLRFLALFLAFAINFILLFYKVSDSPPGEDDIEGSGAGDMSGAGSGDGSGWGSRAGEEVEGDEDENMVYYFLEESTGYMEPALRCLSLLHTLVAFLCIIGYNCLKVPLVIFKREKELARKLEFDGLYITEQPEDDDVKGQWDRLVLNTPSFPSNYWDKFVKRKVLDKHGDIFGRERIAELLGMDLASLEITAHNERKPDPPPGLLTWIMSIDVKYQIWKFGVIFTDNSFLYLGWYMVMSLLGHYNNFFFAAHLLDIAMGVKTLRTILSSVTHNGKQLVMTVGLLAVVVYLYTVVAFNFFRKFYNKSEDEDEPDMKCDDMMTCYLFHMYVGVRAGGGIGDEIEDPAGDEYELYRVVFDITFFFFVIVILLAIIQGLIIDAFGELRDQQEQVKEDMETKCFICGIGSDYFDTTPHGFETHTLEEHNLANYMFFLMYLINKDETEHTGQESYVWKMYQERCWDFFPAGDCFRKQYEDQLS
T1 sequence (P26883 2-108 partner limits assumed): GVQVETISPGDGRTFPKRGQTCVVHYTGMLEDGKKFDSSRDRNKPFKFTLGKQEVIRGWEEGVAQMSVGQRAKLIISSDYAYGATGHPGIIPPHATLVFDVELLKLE

Row | SMILES | binding of calstabin1 to RyR1 [1] | intracellular calcium leak [1] | reactive oxygen species (ROS) [1] | tetanic Ca2+ release, muscle-specific force, and exercise capacity [1] | Ca2+ dependent neutral protease calpain activity and plasma creatinine kinase levels [2] | depletion of calstabin1 from the RyR1 complex [2] | HF progression [3] | RyR2-mediated diastolic SR Ca2+ leak [3] | indices of muscle function [4] | SR Ca2+ leak ([5]; after myocardial ischemia-reperfusion) | ventricular arrhythmias, infarct size, and left ventricular remodeling ([5]; at 15 days after reperfusion) | antisense oligomer-guided exon skipping [6]
1 | COc1ccc2c(c1)CN(C)CCS2 [Compound 5107] | stabilized | reduced | decreased | enhanced | reduced | prevented | reduced | inhibited | improves | inhibited | reduced | 
2 | O=C1CN(/N=C/c2ccc(-c3ccc([N+](=O)[O-])cc3)o2)C(O)=N1 [Dantrolene] |  |  |  |  |  |  |  |  |  |  |  | potentiate
